Measurements taken from patent publication US20230255988A1 (CORNELL UNIVERSITY, priority 2020, published 2023).
“Also recorded” adds a separate entry of the source.

Assays:
[1] = system: amyloid positive patients with amnestic mild cognitive impairment (aMCI) or mild dementia due to AD; assay: Clinical dementia rating (CDR) score, 12-month trial; assay type: in vivo, human
Excerpt: ADAS-cog served as the primary endpoint. […] The trial duration per participant was twelve months. […] Clinical dementia rating (CDR) score. CDR is a five-point scale used to characterize six domains of cognitive and functional performance applicable to Alzheimer's disease and related dementias: Memory, Orientation, Judgment & Problem Solving, Community Affairs, Home & Hobbies, and Personal Care. A higher score indicates greater dementia (C. P. Hughes et al., British Journal of Psychiatry, 140, 566-572, 1982). The primary clinical outcome was ADAS-Cog, and secondary outcomes included the CDR score and fluorodeoxyglucose ([…]) imaging of the brain. AGE levels were an exploratory outcome. The primary analysis followed Intention-to-Treat (ITT) and the secondary analysis was per-protocol. The per-protocol analysis omitted one placebo participant who took benfotiamine from a commercial vendor. The ITT and per-protocol analysis are presented for the primary outcome ADAS-cog and the secondary measure CDR. For the other measures, only per-protocol analysis are presented.

[2] = system: amyloid positive patients with amnestic mild cognitive impairment (aMCI) or mild dementia due to AD; assay: Buschke Selective Reminding Test (SRT), 12-month trial; assay type: in vivo, human; settings: 12 months
Excerpt: The trial duration per participant was twelve months. […] The Buschke Selective Reminding Test (SRT) is a standard diagnostic tool in the assessment of verbal memory. Several studies attest to its predictive value for dementia.

[3] = system: amyloid positive patients with amnestic mild cognitive impairment (aMCI) or mild dementia due to AD; assay: Neuropsychiatric Inventory (NPI), 12-month trial; assay type: in vivo, human
Method: The trial duration per participant was twelve months. […] Neuropsychiatric Inventory (NPI). The NPI assesses a wide range of behaviors encountered in dementia patients to provide a means of distinguishing frequency and severity of behavioral changes. Ten behavioral and two neuro-vegetative domains are evaluated through an interview with the caregiver.

[4] = system: amyloid positive patients with amnestic mild cognitive impairment (aMCI) or mild dementia due to AD; assay: Alzheimer's Disease Cooperative Study-Activities of Daily Living (ADCS-ADL), 12-month trial; assay type: in vivo, human; settings: 12 months
Excerpt: The trial duration per participant was twelve months.
Alzheimer's Disease Cooperative Study-Activities of Daily Living (ADCS-ADL). The ADCS-ADLSIV is a caregiver-based ADL scale composed of 19 items developed for use in dementia clinical studies (D. Galasko et al., Alzheimer Disease and Associated Disorders, 11, S33-S39, 1997). It assesses the patient's performance of both basic and instrumental activities of daily living, such as those necessary for personal care, communicating and interacting with other people, maintaining a household, conducting hobbies and interests, as well as making judgments and decisions. Higher numbered scores and answers of “yes” reflect a more self-sufficient individual. Therefore, the higher total score correlates with higher cognitive function. The total score is the sum of all items and sub-questions.

[5] = system: advanced glycation end products (AGE); assay: Advanced glycation end products (AGE) level, ABCAM kit; assay type: in vivo, human; settings: 12 months
Method: Biomarker outcomes. AGE are formed during the Maillard reaction where reducing carbohydrates react with lysine side chains and N-terminal amino groups of various macromolecules, particularly proteins. AGE can adversely affect the function of these macromolecules. One of the most prevalent advanced glycation end products, N-epsilon-(carboxymethyl) lysine, has been implicated in oxidative stress and vascular damage. The quantity of AGE adduct in protein samples is determined by comparison with that of a known AGE-BSA standard curve. AGE levels were measured on plasma sample with a kit from ABCAM (AB238539), Cambridge, Mass., USA

[6] = system: brain glucose utilization; assay: FDG PET spatial covariance pattern score (SSM/PCA, CDR-derived); assay type: in vivo, human
Method: A multivariate machine learning approach was also applied to evaluate the FDG PET data (FIG. 10). Pattern-based methods have been increasingly applied to the evaluation of neurodegeneration and therapeutic response as they address the issue of complexity in comparing multiple regions and can increase signal to noise for analysis. Feature reduction was performed through use of the Scaled Subprofile Model (SSM), a form of Principal Components Analysis (PCA). The resulting components were used in regression modeling that determined spatial patterns of hypometabolism and hypermetabolism (or preservation relative to other regions) associated with the Clinical Dementia Rating (CDR) score.
Specifically, SSM by performing PCA on the PET-data array was run, with a subsequent brain-behavioral regression to derive a best-fitting pattern whose pattern scores correlates with the CDR score in a negative direction (i.e., the higher the pattern score, the lower the CDR).
To help with the imputation of the multivariate analysis, a generic multivariate decomposition was written as: Y(s,x)=w(s) v(x)+ε(s,x), where Y denotes the (log-transformed) data which depends on a participant and time index s and the voxel location x. […] The pattern score w(s) was chosen to correlate negatively with CDR across the data. The pattern v(x) is normalized to have unity Euclidean norm, i.e. ||v||=1. This means that the pattern score carries all information about the strength of the signal associated with the spatial pattern. Higher values of w(s) imply higher values of pattern-associated FDGPET signal in direct proportion in all regions.
To estimate the topographic robustness of any patterns of interest, a bootstrap resampling procedure was performed 10,000 times, for which data were resampled with replacement and the complete analytic recipe was executed on the resampled data, generating distribution for pattern loadings. […] For the correct interpretation, it is worth noting that positive and negative loadings describe only relative, and not absolute differences, in the signal associated with any covariance pattern. Since the residual signal in ε(s,x) was stripped off, there cannot be assurance that there are absolute differences in the total data for the regions with robust loadings.
After deriving and estimating the topographic robustness of the pattern, the pattern score was inspected for an effect of treatment at baseline and follow-up, also broken down by APOE ε4 status.

[7] = in vivo
Method: Measures of thiamine and its esters thiamine diphosphate (ThDP) and thiamine monophosphate (ThMP) provided blood markers of efficacy of drug delivery.
Study procedures. […] At the baseline visit, the cognitive tests were performed and blood drawn for measurement of thiamine, ThDP and ThMP by HPLC and APOE genotyping. Enrolled patients returned to the Burke outpatient clinic at month 3, 6, 9 and 12 for subsequent visits. At month 12, the final FDG/PET scan was performed at CUIMC.
The trial duration per participant was twelve months. […] At each visit, the patients returned the pill bottles for that period. The number of pills returned was used to assess compliance (the percent of pills consumed).

Compound: C/C(=C(\CCOP(=O)(O)O)SC(=O)c1ccccc1)N(C=O)Cc1cnc(C)nc1N [benfotiamine]
- Mean change in global CDR from baseline to 12 months ([1]; 2×300 mg per day, placebo 0.22, p=0.034): 0.05
- reduction of deterioration (global CDR change versus placebo) ([1]; baseline to 12 months): 77%
- CDR response by APOE ε4 status ([1]; non-APOE ε4 group p=0.013): non-APOE ε4 group seemed to respond much more; also recorded: only the non-APOE ε4 allele group differs
- mean change in CDR-SB from baseline to 12 months, versus placebo ([1]; p=0.078): difference at trend level
- Buschke SRT score and change in score versus placebo ([2]; p=0.177, change 0.315): no significant change
- Buschke SRT score course over time ([2]; placebo showed a downward trend): stable scores
- change in NPI, whole population ([3]; 12 months versus placebo): No differences
- NPI score in males ([3]; males, month 9 (0.014) and month 12 (p=0.035)): significantly reduced scores; also recorded: highly significant benefit in males
- ADCS-ADL score versus placebo [4]: no significant differences
- AGE effect by APOE ε4 status [5]: more apparent in non-APOE ε4 patients
- effect on AGE over the course of the disease ([5]; 13 benfotiamine patients, p=0.043): inhibited the increase in AGE
- CDR-derived FDG PET pattern, treatment effect in APOE ε4 negative population ([6]; 12 months, p=0.019): treatment effect at 12 months; also recorded: show a treatment effect
- CDR-derived FDG PET pattern, treatment effect in APOE ε4 positive population ([6]; 12 months, p=0.255): not in APOE ε4 positive population; also recorded: do not
- longitudinal change in pattern score (follow-up minus baseline), treated versus untreated ([6]; 59 participants who completed follow-up, p=0.638): No difference in longitudinal change
- FDG PET pattern score at time point of 12 months, treatment versus untreated ([6]; FIG. 10A): slightly but significantly higher
- FDG PET pattern score, change from baseline to 12 months versus untreated ([6]; all participants, APOE status not considered): significantly higher change from baseline to 12 months in treated than untreated participants
- increase in blood thiamine above baseline ([7]; human, 12 months): 161 fold
- difference in thiamine levels by APOE-epsilon4 carrier status following treatment [7]: three-fold
